ChEMBL document CHEMBL1156824, “Physicochemical space for optimum oral bioavailability: contribution of human intestinal absorption and first-pass elimination” (J Med Chem, 2010)

Key:
Plasma = assay: Fraction unbound in human plasma
Homo sapiens [1] = organism: Homo sapiens; assay: Hepatic clearance in human; conditions: in vivo
clinical [2] = conditions: human, in vivo
Homo sapiens [3] = organism: Homo sapiens; assay: in vitro; conditions: plasma
clinical [4] = conditions: human, in vivo; remark: listed apart in the source
[5] = (§1) Volume of distribution at steady state in human; conditions: in vivo
Homo sapiens [6] = assay: Oral bioavailability in human; conditions: in vivo
Homo sapiens [7] = organism: Homo sapiens; assay: Fraction absorbed in human; conditions: in vivo
Homo sapiens [8] = organism: Homo sapiens; assay: Fraction escaping gut-wall elimination in human; conditions: in vivo
Homo sapiens [9] = organism: Homo sapiens; assay: Fraction escaping hepatic elimination in human; conditions: in vivo
Homo sapiens [10] = organism: Homo sapiens; conditions: in vivo
Homo sapiens [11] = organism: Homo sapiens; assay: as §1; conditions: in vivo

Row | Compound | CL (Homo sapiens [1]) [mL/min/kg] | CL renal (clinical [2]) [mL/min/kg] | clearance (clinical [4]) [mL/min/kg] | F_fraction (Homo sapiens [6]) | Fg (Homo sapiens [8]) | Fh (Homo sapiens [9]) | other results
1 | CCCCC(=O)N(Cc1ccc(-c2ccccc2-c2nnn[nH]2)cc1)[C@H](C(=O)O)C(C)C | 0.3 | 0.1 |  |  |  |  | Fu (Plasma): 0.04
2 | CO/N=C(\C(=O)N[C@@H]1C(=O)N2C(C(=O)O)=C(C)CS[C@H]12)c1csc(N)n1 | 0.4 |  |  |  |  |  | fraction unbound (Homo sapiens [3]): 0.78
3 | Cc1cccc(C)c1NC(=O)NCCCNC(C)C | 2.2 |  |  |  |  |  | fraction unbound (Homo sapiens [3]): 0.86
4 | C[C@@H]1[C@H](O)[C@@H](C)/C=C/C=C/C=C/C=C/C=C/C=C/C=C/[C@H](O[C@@H]2O[C@H](C)[C@@H](O)[C@H](N)[C@@H]2O)C[C@@H]2O[C@](O)(C[C@@H](O)C[C@@H](O)[C@H](O)CC[C@@H](O)C[C@@H](O)CC(=O)O[C@H]1C)C[C@H](O)[C@H]2C(=O)O [AMPHOTERICIN B] | 0.4 | 0.0138 | 0.46 |  |  |  | 
5 | O=C1C(O)=C([C@H]2CC[C@H](c3ccc(Cl)cc3)CC2)C(=O)c2ccccc21 [ATOVAQUONE] | 0.2 |  |  |  |  |  | Fu (Plasma): 0.001; Vd [5]: 0.6 L/kg
6 | CC(C)NCC(O)COc1ccc(CCOCC2CC2)cc1 (configuration not stated) [BETAXOLOL] | 2.7 |  |  | 0.89 | 1.01 | 0.88 | Fa (Homo sapiens [7]): 1
7 | CCc1cccc2cc(C(O)CNC(C)(C)C)oc12 (configuration not stated) [BUFURALOL] | 8.9 |  |  | 0.43 | 0.7 | 0.61 | Fa (Homo sapiens [7]): 1; CL_renal (Homo sapiens [10]): 0 mL/min/kg; fraction unbound (Homo sapiens [3]): 0.19
8 | CO/N=C(\C(=O)N[C@@H]1C(=O)N2C(C(=O)O)=C(CSc3nc(=O)c(=O)[nH]n3C)CS[C@H]12)c1csc(N)n1 [CEFTRIAXONE] | 0.1 | 0.1 |  |  |  |  | Fu (Plasma): 0.052
9 | COCc1c(C(C)C)nc(C(C)C)c(/C=C/[C@@H](O)C[C@@H](O)CC(=O)O)c1-c1ccc(F)cc1 [CERIVASTATIN] | 2.9 |  |  |  |  |  | CL_renal (Homo sapiens [10]): 0 mL/min/kg
10 | O=C(O)c1cn(C2CC2)c2cc(N3CCNCC3)c(F)cc2c1=O [CIPROFLOXACIN] |  |  |  |  | 0.98 | 0.94 | Fa (Homo sapiens [7]): 0.75
11 | Cc1onc(-c2ccccc2Cl)c1C(=O)N[C@@H]1C(=O)N2[C@@H]1SC(C)(C)[C@@H]2C(=O)O [CLOXACILLIN] | 0.6 | 1 | 1.6 |  |  |  | 
12 | O=P1(N(CCCl)CCCl)NCCCO1 (configuration not stated) [CYCLOPHOSPHAMIDE ANHYDROUS] | 1 | 0.1 |  | 0.74 | 0.86 | 0.96 | Fa (Homo sapiens [7]): 0.9
13 | CC(C)N(CCC(C(N)=O)(c1ccccc1)c1ccccn1)C(C)C (configuration not stated) [DISOPYRAMIDE] | 0.4 |  |  |  |  |  | Fu (Plasma): 0.16
14 | COc1cc([C@@H]2c3cc4c(cc3[C@@H](O[C@@H]3O[C@@H]5CO[C@@H](C)O[C@H]5[C@H](O)[C@H]3O)[C@H]3COC(=O)[C@H]23)OCO4)cc(OC)c1O [ETOPOSIDE] | 0.3 | 0.2 | 0.5 |  |  | 0.99 | 
15 | COc1ccc(Cl)cc1C(=O)NCCc1ccc(S(=O)(=O)NC(=O)NC2CCCCC2)cc1 [GLYBURIDE] | 0.8 |  |  |  |  |  | Fu (Plasma): 0.021; Vd [5]: 0.08 L/kg
16 | c1ccc2c(c1)OCC(C1=NCCN1)O2 (configuration not stated) [IDAZOXAN] | 10 |  | 10 |  |  |  | 
17 | C[C@@H](O)[C@H]1C(=O)N2C(C(=O)O)=C(SCCN=CN)C[C@H]12 [IMIPENEM ANHYDROUS] | 1.5 | 1.5 | 3 |  |  |  | 
18 | COc1ccc2c(c1)c(CC(=O)O)c(C)n2C(=O)c1ccc(Cl)cc1 [INDOMETHACIN] | 1.1 |  |  |  |  |  | Fu (Plasma): 0.01
19 | Nc1nnc(-c2cccc(Cl)c2Cl)c(N)n1 [LAMOTRIGINE] | 0.6 | 0.042 | 0.6 | 0.98 |  |  | 
20 | CNC[C@H](O)CC12CCC(c3ccccc31)c1ccccc12 [LEVOPROTILINE] | 12.1 | 0.2 | 12.3 |  |  |  | 

Row | Compound | CL (Homo sapiens [1]) [mL/min/kg] | CL renal (clinical [2]) [mL/min/kg] | clearance (clinical [4]) [mL/min/kg] | F_fraction (Homo sapiens [6]) | Fg (Homo sapiens [8]) | Fh (Homo sapiens [9]) | other results
21 | CCCCCN(CCCOC)C(=O)C(CCC(=O)O)NC(=O)c1ccc(Cl)c(Cl)c1 (configuration not stated) [LOXIGLUMIDE] | 1 | 0.022 | 1 |  |  |  | 
22 | Cc1ncc2n1-c1ccc(Cl)cc1C(c1ccccc1F)=NC2 [MIDAZOLAM] | 5.3 |  |  | 0.38 |  |  | CL_renal (Homo sapiens [10]): 0 mL/min/kg
23 | CC(C)(C)NCC(O)COc1cccc2c1CC(O)C(O)C2 (configuration not stated) [NADOLOL] | 1.1 |  |  |  |  |  | Fu (Plasma): 0.14
24 | CN1CCC[C@H]1c1cccnc1 [NICOTINE] | 15 |  |  | 0.3 | 0.86 | 0.35 | Fa (Homo sapiens [7]): 1
25 | CNCCC=C1c2ccccc2CCc2ccccc21 [NORTRIPTYLINE] | 9.8 |  |  | 0.51 | 0.89 | 0.57 | Fa (Homo sapiens [7]): 1
26 | COc1ccnc(C[S+]([O-])c2nc3ccc(OC(F)F)cc3[nH]2)c1OC (configuration not stated) [PANTOPRAZOLE] | 2.2 |  |  |  |  |  | Vdss (Homo sapiens [11]): 6.3 L/kg
27 | O=C1NC(=O)C(c2ccccc2)(c2ccccc2)N1 [PHENYTOIN] | 0.4 | 0.0074 | 0.37 |  |  | 0.98 | 
28 | CNC(=O)Oc1ccc2c(c1)[C@]1(C)CCN(C)[C@@H]1N2C [PHYSOSTIGMINE] | 5.5 | 16.5 | 22 | 0.01 |  |  | Vd [5]: 0.66 L/kg
29 | C[C@]12C=CC(=O)C=C1CC[C@@H]1[C@@H]2[C@@H](O)C[C@@]2(C)[C@H]1CC[C@]2(O)C(=O)CO [PREDNISOLONE] | 2.3 |  |  |  |  |  | Fu (Plasma): 0.25
30 | CCCc1cc(=O)[nH]c(=S)[nH]1 [PROPYLTHIOURACIL] | 3.1 |  |  |  | 0.97 | 0.87 | Fu (Plasma): 0.18
31 | CC(C)c1nc(CN(C)C(=O)N[C@H](C(=O)N[C@@H](Cc2ccccc2)C[C@H](O)[C@H](Cc2ccccc2)NC(=O)OCc2cncs2)C(C)C)cs1 [RITONAVIR] | 1.2 | 0.042 | 1.2 |  |  |  | 
32 | Nc1ccc(S(=O)(=O)Nc2ncccn2)cc1 [SULFADIAZINE] | 0.2 | 0.3 |  | 0.85 | 1.01 | 0.99 | Fa (Homo sapiens [7]): 0.85
33 | Cc1cc(NS(=O)(=O)c2ccc(N)cc2)no1 [SULFAMETHOXAZOLE] |  |  |  |  | 1.01 | 0.99 | Fa (Homo sapiens [7]): 1
34 | O=C(O)c1cc(/N=N/c2ccc(S(=O)(=O)Nc3ccccn3)cc2)ccc1O [SULFASALAZINE] | 0.2 | 0.1 | 0.24 |  |  |  | 
35 | CN1C(C(=O)Nc2ccccn2)=C(O)c2sccc2S1(=O)=O [TENOXICAM] | 0.0297 | 0.0003 |  | 1 | 1 | 1 | Fa (Homo sapiens [7]): 1
36 | CCOC(=O)C1(c2ccccc2)CCC=CC1N(C)C (configuration not stated) [TILIDINE] | 15.7 | 0.3 |  |  |  |  | Vd [5]: 4 L/kg; fraction unbound (Homo sapiens [3]): 0.21
37 | Clc1ccc2nsnc2c1NC1=NCCN1 [TIZANIDINE] | 10.7 | 0.3 |  | 0.21 | 0.39 | 0.54 | Fa (Homo sapiens [7]): 1
38 | COc1cc(Cc2cnc(N)nc2N)cc(OC)c1OC [TRIMETHOPRIM] |  |  |  | 0.76 | 0.83 | 0.95 | Fa (Homo sapiens [7]): 0.97
39 | GENTAMICIN | 0.3 |  |  |  |  |  | Fu (Plasma): 1
